{"source": "ChEMBL document CHEMBL1687911", "about": "“Design, synthesis, and biological evaluation of novel carbohydrate-based sulfamates as carbonic anhydrase inhibitors” (J Med Chem, 2011)", "data": [{"molecular_target": "Carbonic anhydrase 9 (Homo sapiens, UniProt Q16790)", "assay": "Inhibition of human carbonic anhydrase 9 catalytic domain by CO2 hydration assay", "units": {"Ki": "µM"}, "values": [{"smiles": "CC(=O)O[C@@H]1O[C@H](COS(N)(=O)=O)[C@@H](OC(C)=O)[C@H](OC(C)=O)[C@H]1OC(C)=O", "Ki": 0.073}, {"smiles": "CCC(=O)O[C@@H]1O[C@H](COS(N)(=O)=O)[C@@H](OC(=O)CC)[C@H](OC(=O)CC)[C@H]1OC(=O)CC", "Ki": 0.077}, {"smiles": "CC(=O)O[C@@H]1O[C@H](COS(N)(=O)=O)[C@H](OC(C)=O)[C@H](OC(C)=O)[C@H]1OC(C)=O", "Ki": 0.075}, {"smiles": "CC(=O)O[C@@H]1O[C@H](COS(N)(=O)=O)[C@@H](OC(C)=O)[C@H](OC(C)=O)[C@@H]1OC(C)=O", "Ki": 0.0078}, {"smiles": "CC(=O)OC[C@H]1O[C@@H](OC(C)=O)[C@H](OC(C)=O)[C@@H](OC(C)=O)[C@@H]1O[C@H]1O[C@H](COS(N)(=O)=O)[C@@H](OC(C)=O)[C@H](OC(C)=O)[C@H]1OC(C)=O", "Ki": 0.631}, {"smiles": "CO[C@H]1O[C@H](COS(N)(=O)=O)[C@@H](OC(C)=O)[C@H](OC(C)=O)[C@H]1OC(C)=O", "Ki": 0.0084}, {"smiles": "NS(=O)(=O)OC[C@H]1OC(O)[C@H](O)[C@@H](O)[C@@H]1O", "note": "(some centres not stated)", "Ki": 0.0086}, {"smiles": "NS(=O)(=O)OC[C@H]1OC(O)[C@H](O)[C@@H](O)[C@H]1O", "note": "(some centres not stated)", "Ki": 0.062}, {"smiles": "NS(=O)(=O)OC[C@H]1OC(O)[C@@H](O)[C@@H](O)[C@@H]1O", "note": "(some centres not stated)", "Ki": 0.053}, {"smiles": "NS(=O)(=O)OC[C@H]1O[C@H](O[C@H]2[C@H](O)[C@@H](O)[C@H](O)O[C@@H]2CO)[C@H](O)[C@@H](O)[C@@H]1O", "Ki": 0.497}, {"smiles": "CO[C@H]1O[C@H](COS(N)(=O)=O)[C@@H](O)[C@H](O)[C@H]1O", "Ki": 0.009}, {"smiles": "CC(=O)OC[C@H]1O[C@@H](S(N)(=O)=O)[C@H](OC(C)=O)[C@@H](OC(C)=O)[C@H]1OC(C)=O", "Ki": 4.15}]}]}
